Experimental data reported in ChEMBL document CHEMBL3228009, “Hypobetalipoproteinemic agents. 2. Compounds related to 4-(1-adamantyloxy)aniline” (J Med Chem, 1979).

How the values were obtained:
[1] = species on record: Rattus norvegicus; assay: Selectivity ratio of T/C for heparin precipitating lipoproteins to T/C for total serum cholesterol in diet-induced hypercholesteremic rat model; assay type: functional
[2] = system: Rattus norvegicus; assay: Toxicity in diet-induced hypercholesteremic rat model assessed as increase in food intake at 50 mg/kg, po relative to control; assay type: organism-based; parameters: dose 50 mg/kg, route oral; conditions: in vivo
[3] = system: Rattus norvegicus; assay: Toxicity in diet-induced hypercholesteremic rat model assessed as increase in body weight at 50 mg/kg, po relative to control; assay type: organism-based; parameters: dose 50 mg/kg, route oral; conditions: in vivo
[4] = system: Rattus norvegicus; assay: Hypobetalipoproteinemic activity in diet-induced hypercholesteremic rat model assessed as decrease in total serum cholesterol at 50 mg/kg, po relative to control; assay type: functional
[5] = system: Rattus norvegicus; assay: Hypobetalipoproteinemic activity in diet-induced hypercholesteremic rat model assessed as decrease in heparin precipitating lipoproteins at 50 mg/kg, po relative to control; assay type: functional

SMILES | Selectivity ratio [1] | Activity [2] [%] | Activity [3] [%] | T/C [4] | T/C [5]
Nc1ccc(S(=O)(=O)C23CC4CC(CC(C4)C2)C3)cc1 | 0.95 | > 73 | > 63 | 1.12 | 1.07
Nc1ccc(SC23CC4CC(CC(C4)C2)C3)cc1 | 0.87 | > 73 | > 63 | 0.51 | 0.45
CN(c1ccc(N2CCCC2)cc1)C12CC3CC(CC(C3)C1)C2 | 1.1 | > 73 | < 63 | 0.93 | 1.02
Nc1ccc(NC23CC4CC(CC(C4)C2)C3)cc1 | 0.9 | > 73 | < 63 | 0.94 | 0.85
CC(=O)Nc1ccc(N(C(C)=O)C23CC4CC(CC(C4)C2)C3)cc1 | 0.98 | > 73 | > 63 | 1 | 0.98
c1cc(N2CCCC2)ccc1SC12CC3CC(CC(C3)C1)C2 | 1.14 | > 73 | > 63 | 0.83 | 0.95
Nc1ccc(OC2C3CC4CC(C3)CC2C4)cc1 (stereo not given) | 0.82 | > 73 | > 63 | 0.82 | 0.67
CC1(Oc2ccc(N)cc2)C2CC3CC(C2)CC1C3 (stereo not given) | 0.77 | > 73 | < 63 | 0.58 | 0.45
c1cc(N2CCCC2)ccc1OC1C2CC3CC(C2)CC1C3 (stereo not given) | 1.01 | > 73 | > 63 | 1.07 | 1.07
CC1(Oc2ccc(N3CCCC3)cc2)C2CC3CC(C2)CC1C3 (stereo not given) | 0.99 | > 73 | > 63 | 1.04 | 1.03
CNc1ccc(OC2C3CC4CC(C3)CC2C4)cc1.Cl (stereo not given) | 1.04 | > 73 | > 63 | 0.83 | 0.87
Nc1ccc(O)cc1 [4-AMINOPHENOL] | 1.04 | > 73 | > 63 | 0.94 | 0.98
